Source: patent US6191145A, “Orally-active nipecotamide glycolamide esters for the treatment of thrombosis disorders” (Ortho-McNeil Pharmaceutical, Inc., priority 1999, dated 2001)
pIC50: −log10 of the molar value. Structures can show the parent of a compound that is named as a salt.

Tests used:
GPIIb/IIIa = GPIIb/IIIa (Homo sapiens, UniProt P05106+P08514); assay: In vitro solid phase purified glycoprotein IIb/IIIa binding assay (fibrinogen binding); conditions: for inhibition at 50 µM: read-out: Fibrinogen Binding % Inh. (50 μM)
GPIIb/IIIa, sequence (P08514 32-887 limits assumed): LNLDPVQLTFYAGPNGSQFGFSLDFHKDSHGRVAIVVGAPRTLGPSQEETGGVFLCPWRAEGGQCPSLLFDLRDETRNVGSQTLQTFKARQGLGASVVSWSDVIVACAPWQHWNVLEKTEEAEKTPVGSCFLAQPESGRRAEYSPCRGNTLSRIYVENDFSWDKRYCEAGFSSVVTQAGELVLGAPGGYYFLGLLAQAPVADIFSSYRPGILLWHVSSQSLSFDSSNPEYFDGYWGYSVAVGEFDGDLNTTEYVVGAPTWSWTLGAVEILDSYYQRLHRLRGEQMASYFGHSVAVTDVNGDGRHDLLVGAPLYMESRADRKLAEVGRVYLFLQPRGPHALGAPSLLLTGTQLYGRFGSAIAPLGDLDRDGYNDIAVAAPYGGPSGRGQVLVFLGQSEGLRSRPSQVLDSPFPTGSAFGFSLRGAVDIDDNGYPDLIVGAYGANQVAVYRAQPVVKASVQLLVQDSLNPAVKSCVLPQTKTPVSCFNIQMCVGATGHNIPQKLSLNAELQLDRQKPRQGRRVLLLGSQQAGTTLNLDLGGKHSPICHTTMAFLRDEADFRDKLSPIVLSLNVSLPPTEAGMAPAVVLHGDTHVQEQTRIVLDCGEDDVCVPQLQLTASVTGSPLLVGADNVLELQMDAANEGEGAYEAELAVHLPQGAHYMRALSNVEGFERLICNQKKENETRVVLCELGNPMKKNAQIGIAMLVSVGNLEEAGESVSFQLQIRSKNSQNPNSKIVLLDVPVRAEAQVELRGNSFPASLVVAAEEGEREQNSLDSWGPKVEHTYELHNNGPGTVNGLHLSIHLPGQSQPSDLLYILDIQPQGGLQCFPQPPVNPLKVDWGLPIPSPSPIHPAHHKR
GPIIb/IIIa, sequence (P08514 891-1039 limits assumed): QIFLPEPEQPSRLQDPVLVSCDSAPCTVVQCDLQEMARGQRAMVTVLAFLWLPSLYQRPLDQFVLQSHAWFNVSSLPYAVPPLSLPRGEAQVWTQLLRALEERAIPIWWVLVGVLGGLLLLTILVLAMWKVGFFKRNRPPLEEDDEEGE
GPIIb/IIIa, sequence (P05106 27-788): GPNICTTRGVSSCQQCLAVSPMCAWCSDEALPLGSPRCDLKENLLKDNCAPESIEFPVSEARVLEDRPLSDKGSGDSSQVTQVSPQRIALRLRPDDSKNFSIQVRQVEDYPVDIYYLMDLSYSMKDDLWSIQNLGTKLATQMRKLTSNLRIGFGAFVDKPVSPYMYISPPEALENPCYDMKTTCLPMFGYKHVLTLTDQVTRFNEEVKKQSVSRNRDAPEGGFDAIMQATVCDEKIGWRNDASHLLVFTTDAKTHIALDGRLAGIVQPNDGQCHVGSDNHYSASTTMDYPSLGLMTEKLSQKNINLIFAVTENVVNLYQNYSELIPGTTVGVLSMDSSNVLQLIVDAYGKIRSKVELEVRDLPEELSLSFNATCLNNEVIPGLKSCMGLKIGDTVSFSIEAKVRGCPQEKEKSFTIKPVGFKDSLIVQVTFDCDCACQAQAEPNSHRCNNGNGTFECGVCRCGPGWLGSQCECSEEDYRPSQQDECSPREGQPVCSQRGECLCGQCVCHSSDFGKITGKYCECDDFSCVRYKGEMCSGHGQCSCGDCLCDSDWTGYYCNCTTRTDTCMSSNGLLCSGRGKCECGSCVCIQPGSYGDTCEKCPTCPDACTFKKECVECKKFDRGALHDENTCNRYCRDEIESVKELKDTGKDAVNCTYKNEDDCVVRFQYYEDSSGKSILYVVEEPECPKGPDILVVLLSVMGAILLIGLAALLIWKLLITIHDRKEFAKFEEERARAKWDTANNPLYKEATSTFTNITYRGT
Experimental: The plate is covered and incubated overnight at 4° C. The GPIIb/IIa solution is discarded and 150 μl of 5% BSA is added and incubated at RT for 1-3 h. The plate is washed extensively with modified Tyrodes buffer. Biotinylated fibrinogen (25 μl/well) at 2×final concentration is added to the wells that contain the test compounds (25 μl/well). The plate is covered and incubated at RT for 2-4 h. Twenty minutes prior to incubation completion, one drop of Reagent A (Vecta Stain ABC Horse Radish Peroxidase kit, Vector Laboratories, Inc.) and one drop Reagent B are added with mixing to 5 mL modified Tyrodes buffer mix and let stand. The ligand solution is discarded and the plate washed (5×200 μl/well) with modified Tyrodes buffer. Vecta Stain HRP-Biotin-Avidin reagent (50 μl/well, as prepared above) is added and incubated at RT for 15 min. The Vecta Stain solution is discarded and the wells washed (5×200 μl/well) with modified Tyrodes buffer. Developing buffer (10 mL of 50 mM citrate/phosphate buffer @ pH 5.3, 6 mg 2-phenylenediamine, 6 μl 30% H2 O2; 50 μl/well) is added and incubated at RT for 3-5 min, and then 2N H2 SO4 (50 μl/well) is added. The absorbance is read at 490 nm.

[1] = test system: Thrombin-induced aggregation of gel-filtered platelets; assay: In vitro inhibition of thrombin-induced gel-filtered platelet aggregation; assay type: cell-based; conditions: Homo sapiens; for inhibition at 50 µM: read-out: Platelet Aggregation % Inh. (50 μM)
Experimental: The percentage of platelet aggregation is calculated as an increase in light transmission of compound-treated platelet concentrate vs. control-treated platelet concentrate. Human blood is obtained from drug free, normal donors into tubes containing 0.13M sodium citrate. Platelet rich plasma (PRP) is collected by centrifugation of whole blood at 200×g for 10 min at 25° C. The PRP (5 mL) is gel filtered through Sepharose 2B (bed volume 50 mL), and the platelet count is adjusted to 2×10^7 platelets per sample. The following constituents are added to a siliconized cuvette: concentrated platelet filtrate and Tyrode's buffer (0.14M NaCl, 0.0027M KCl, 0.012M NaHCO3,0.76 mM Na2 HPO4, 0.0055M glucose, 2 mg/mL BSA and 5.0 mM HEPES @ pH 7.4) in an amount equal to 350 μl, 50 μl of 20 mM calcium and 50 μl of the test compound. Aggregation is monitored in a BIODATA aggregometer for the 3 min following the addition of agonist (thrombin 50 μl of 1 unit/mL).

[2] = test system: collagen-induced ex vivo platelet aggregation; assay: Ex vivo dog study: duration of >50% inhibition of collagen-induced ex vivo platelet aggregation; assay type: in vivo
Experimental: Adult mongrel dogs (8-13 kg) were anesthetized with sodium pentobarbital (35 mg/kg, i.v.) and artificially respired. Arterial blood pressure and heart rate were measured using a Millar catheter-tip pressure transducer inserted in a femoral artery. Another Millar transducer was placed in the left ventricle (LV) via a carotid artery to measure LV end diastolic pressure and indices of myocardial contractility. A lead II electrocardiogram was recorded from limb electrodes. Catheters were placed in a femoral artery and vein to sample blood and infuse drugs, respectively. Responses were continuously monitored using a Modular Instruments data aquisition system.
Arterial blood samples (5-9 ml) were withdrawn into tubes containing 3.8% sodium citrate to prepare platelet rich plasma (PRP) and to determine effects on coagulation parameters: prothrombin time (PT) and activated partial thromboplastin time (APTT). Separate blood samples (1.5 ml) were withdrawn in EDTA to determine hematocrit and cell counts (platelets, RBC's and white cells). Template bleeding times were obtained from the buccal surface using a symplate incision devise and Whatman filter paper.
Aggregation of PRP was performed using a BioData aggregometer. Aggregation of whole blood used a Chronolog impedance aggregometer. PT and APTT were determined on either a BioData or ACL 3000+ coagulation analyser. Cells were counted with a Sysmex K-1000.
Compounds were solubilized in a small volume of dimethylformamide (DMF) and diluted with saline to a final concentration of 10% DMF. Compounds were administered by the intravenous route with a Harvard infusion pump. Doses was administered over a 15 min interval at a constant rate of 0.33 ml/min. Data were obtained after each dose and in 30 min intervals following the end of drug administration. Oral doses were administered as aqueous solutions via syringe.

[3] = test system: thrombin-induced platelet aggregation; conditions: L. Alig, J. Med. Chem. 1992, 35, 4393; read-out: IC50 against in vitro thrombin-induced platelet aggregation; cited from earlier work

Compound | pIC50 (GPIIb/IIIa) | inhibition at 50 µM (GPIIb/IIIa) | pIC50 [1] | inhibition at 50 µM [1] | Duration of >50% inhibition of collagen-induced ex vivo platelet aggregation, intravenous dosing ([2]; 0.3 mpk) | Duration of >50% inhibition of collagen-induced ex vivo platelet aggregation, oral dosing ([2]; 3 mpk) | Duration of >50% inhibition of collagen-induced ex vivo platelet aggregation, intravenous dosing ([2]; 1.0 mpk) | Duration of >50% inhibition of collagen-induced ex vivo platelet aggregation, intravenous dosing ([2]; 0.1 mpk) | Duration of >50% inhibition of collagen-induced ex vivo platelet aggregation, oral dosing ([2]; 1 mpk) | pIC50 [3]
CCN(CC)C(=O)COC(=O)C[C@H](NC(=O)[C@@H]1CCCN(C(=O)CCC2CCNCC2)C1)c1cccnc1 [Compound 1, N-3-(4-Piperidinepropionyl)-R-(-)-nipecotyl-[(S)-3-amino-3-(3-pyridyl)]propionic acid 2-(Diethylamino)-2-oxoethyl ester.2HCl] | 9.15 | 100% | 6.85 | 100% | 60 min | > 180 min | – | – | – | –
CCN(CC)C(=O)COC(=O)C[C@H](NC(=O)[C@@H]1CCCN(C(=O)CCC2CCNCC2)C1)c1ccc2c(c1)OCO2 [Compound 2] | 8.30 | 100% | 5.96 | 100% | – | 150 min | 120 min | – | – | –
CCN(CC)C(=O)COC(=O)C[C@H](NC(=O)[C@@H]1CCCN(C(=O)CCC2CCNCC2)C1)c1cncc(Br)c1 [Compound 3] | 9.05 | 100% | 6.72 | 100% | – | 90 min | – | – | – | –
CCN(CC)C(=O)COC(=O)[C@H](CNC(=O)[C@@H]1CCCN(C(=O)CCC2CCNCC2)C1)NC(=O)OCc1ccccc1 [Compound 4, N-3-(4-Piperidinepropionyl)-R-(-)nipecotyl-[(S)-2-benzyloxycarbonylamino-3-amino]propionic acid 2-(Diethylamino)-2-oxoethyl ester.HCl] | 8.70 | 100% | 6.54 | 100% | – | > 240 min | – | 60 min | – | –
CCN(CC)C(=O)COC(=O)[C@H](CNC(=O)[C@@H]1CCCN(C(=O)/C=C/C2CCNCC2)C1)NC(=O)OCc1ccccc1 [Compound 5, N-3-(4-Piperidinepropenoyl)-R-(-)nipecotyl-[(S)-2-benzyloxycarbonylamino-3-amino]propionic acid 2-(Diethylamino)-2-oxoethyl ester.HCl] | 8.01 | 100% | 6.57 | 100% | – | – | – | 60 min | > 240 min | –
O=C(N[C@@H](CNC(=O)[C@@H]1CCCN(C(=O)/C=C/C2CCNCC2)C1)C(=O)OCC(=O)N1CCCCC1)OCc1ccccc1 [Compound 6, N-3-(4-Piperidinepropenoyl)-R-(-)nipecotyl-[(S)-2-benzyloxycarbonylamino-3-amino]propionic acid 2-(Piperidino)-2-oxoethyl ester.HCl] | 8.60 | 100% | 6.29 | 100% | – | – | – | – | 150 min | –
CN(CC(=O)c1ccc(OCC(=O)O)c(OCC(=O)O)c1)C(=O)c1ccc(C(=N)N)cc1 [Ro-438857] | – | – | – | – | – | – | – | – | – | 7.03
O=C(N[C@@H](CNC(=O)[C@@H]1CCCN(C(=O)CCC2CCNCC2)C1)C(=O)O)OCc1ccccc1 [carboxylic acid congener, reference compound] | – | – | – | – | – | 180 min | – | – | – | –
